Test [1] deals with human emopamil binding protein and human 7-dehydrocholesterol reductase (hEBP-DHCR7) (Homo sapiens (Human), UniProt Q15125). The experiment in a line: hEBP-DHCR7 radioligand binding assay (filter binding, membranes of co-expressing HEK293 cells). The settings on record: competition with [3H] radioligand, 8 doses 0.06 to 5000 nM, Ki calculated from IC50. Summed up:
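Membranes from HEK293 cells transiently co-expressing hEBP and DHCR7 (10 μg/well) were incubated for 3 h at 22 °C with tritiated spiro-sulfone radioligand (added at 25 nM) and compound at 1 μM or 0.06–5000 nM. Filtration and scintillation counting followed. Inhibition was normalised to 5 μM unlabelled ligand and DMSO, and Ki was derived as IC50/(1+[L]/Kd).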

The subject of test [2] is EpiSC-derived OPCs. The experiment in a line: In vitro phenotypic screening of OPCs, MBP high-content imaging (percentage of oligodendrocytes). The class given is cell-based, mouse. Particulars: Mus musculus, 72 h, 3 days, MBP stain, dose-response 0.5 nM to 1000 nM; read-out: OPC EC50. As to the method: To assess effects of treatments on OPCs, all treatments were assayed in two or more independent platings of epiblast stem cell-derived OPCs (EpiSC). EpiSC-derived OPCs were obtained using in vitro differentiation protocols and culture conditions described previously (Najm et al, 2011, Nature Methods). OPCs were expanded and frozen down in aliquots. OPCs were thawed into growth conditions for at least one passage before use in further assays.
EpiSC-derived OPCs were grown and expanded in poly-L-ornithine (PO) and laminin-coated flasks in N2B27 media (DMEM/F12 (Gibco), N2-MAX (R&D Systems), B-27 (ThermoFisher), and GlutaMax (Gibco)) supplemented with FGF2 (10 μg/mL, R&D systems, 233-FB-025) and PDGF-AA (10 μg/mL, R&D systems, 233-AA-050) before harvesting for experiments. The cells were seeded onto poly-L-ornithine or poly-D-lysine coated CellCarrier Ultra plates (PerkinElmer) coated with laminin (Sigma, L2020) at a density of 150,000/cm^2 in N2B27 media without growth factors. For dose-response testing, a 1000× compound stock in dimethyl sulphoxide (DMSO) was added to assay plates, resulting in 8-point dose curves with final concentrations between 1000 nM and 0.5 nM. Positive controls and DMSO vehicle controls were included in each assay plate. Cells were incubated under standard conditions (37° C., 5% CO2) for 3 days and fixed with 4% paraformaldehyde (PFA) in phosphate buffered saline (PBS) for 20 min. Fixed plates were washed with PBS, permeabilized with 0.1% Triton X-100, and blocked with 10% donkey serum (v/v) in PBS for 40 min. Then, cells were labelled with MBP antibodies (Abcam, ab7349; 1:200) for 2 h at room temperature, washed with PBS, and stained with Alexa Fluor conjugated secondary antibodies (1:500) for 45 min. Nuclei were visualized by DAPI staining (Sigma; […]), followed by further PBS washes.
Cells and cell culture plates were imaged on the Operetta High Content Imaging and Analysis system (PerkinElmer). Analysis (PerkinElmer Harmony and Columbus software) began by identifying intact nuclei stained by DAPI. The peri-nuclear region of each cell was then cross-referenced with the mature myelin protein (MBP) stain to identify oligodendrocyte nuclei, and from this the percentage of oligodendrocytes was calculated. EC50 values were calculated using The Levenberg-Marquardt algorithm to fit a Hill equation to dose-response data (0.5 nM to 1000 nM).

Test [3] concerns zymostenol accumulation (EBP) in EpiSC-derived OPCs. The experiment in a line: GC/MS-based sterol profiling, zymostenol accumulation in EpiSC-derived OPCs. The settings on record: Mus musculus, 24 h, EpiSC-derived OPCs, 24 hr, 8 doses from 0.15 nM to 333 nM; read-out: Mouse Zymostenol GCMS EC50. Type of test: cell-based, mouse. Summed up: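 Mouse epiblast stem cell-derived OPCs plated at 100,000 cells/well in growth-factor-free N2B27 and treated 24 h. Sterols extracted by modified Folch wash, silylated with BSTFA, and quantified by electron-impact GC/MS against cholesterol-d7 (zymostenol ion 458). Zymostenol normalised to 24 h 100 nM positive-control reference.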

Chain of human emopamil binding protein and human 7-dehydrocholesterol reductase (hEBP-DHCR7) (Q15125 whole entry): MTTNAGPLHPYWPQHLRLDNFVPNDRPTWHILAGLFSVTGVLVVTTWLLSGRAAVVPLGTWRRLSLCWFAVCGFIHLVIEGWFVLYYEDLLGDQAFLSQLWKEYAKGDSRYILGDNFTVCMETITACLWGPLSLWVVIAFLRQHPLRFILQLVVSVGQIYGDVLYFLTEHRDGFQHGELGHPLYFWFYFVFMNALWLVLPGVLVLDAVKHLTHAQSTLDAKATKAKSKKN

On to `CC(C)n1nc(-c2cncc(C(F)(F)F)c2)cc1[C@H]1[C@@H]2C[C@@H](N3C[C@H]4C[C@@H]3CO4)C[C@@H]21` (single isomer, unassigned) [35*], for which the inhibition constant Ki (commonly a dissociation constant, usually derived from enzyme kinetics or from competition with a known ligand) in test [1] is 112 nM. Further, the EC50 – broadly, the concentration that produces a half-maximal response – in test [2] was determined as 175 nM; in test [3] it was 30 nM.

Turning to `CC(C)n1nc(-c2cncc(C(F)(F)F)c2)cc1[C@H]1[C@@H]2C[C@@H](N3C[C@@H]4C[C@H]3CO4)C[C@@H]21` (single isomer, unassigned) [36*], the inhibition constant (Ki) in test [1] was 211 nM. Further, the concentration for a half-maximal effect (EC50) in test [2] is 144 nM; in test [3], 230 nM.

On to `CC(C)n1nc(-c2cncc(C(F)(F)F)c2)cc1[C@H]1[C@@H]2C[C@H](N3C[C@H]4C[C@@H]3CO4)C[C@@H]21` (single isomer, unassigned) [37*], for which, in test [1], the Ki is 33 nM. Moreover, the EC50 worked out at 98 nM in test [2] and 18 nM in test [3].

Take `CC(C)n1nc(-c2cncc(C(F)(F)F)c2)cc1[C@H]1[C@@H]2C[C@H](N3C[C@@H]4C[C@H]3CO4)C[C@@H]21` (single isomer, unassigned) [38*]: the inhibitory constant (Ki) in test [1] is 47.6 nM. Moreover, the concentration giving a half-maximal response (EC50) in test [2] is 71 nM; in test [3], 9.32 nM.

With `CC(C)n1nc(-c2cncc(C(F)(F)F)c2)cc1[C@H]1[C@@H]2C[C@@H](N3CCO[C@@H](C)C3)C[C@@H]21` (single isomer, unassigned) [39*], the Ki in test [1] is 771 nM. Besides, the EC50 in test [2] came out at 523 nM; in test [3], 255 nM.

As for `CC(C)n1nc(-c2cncc(C(F)(F)F)c2)cc1[C@H]1[C@@H]2C[C@@H](N3CCO[C@H](C)C3)C[C@@H]21` (single isomer, unassigned) [40*], in test [1], the inhibitory constant (Ki) was 111 nM. For the same compound, the 50% effective concentration (EC50) in test [2] was 325 nM; in test [3], 78 nM.

On to `CC(C)n1nc(-c2cncc(C(F)(F)F)c2)cc1[C@H]1[C@@H]2C[C@H](N3CCO[C@@H](C)C3)C[C@@H]21` (single isomer, unassigned) [41*], for which the Ki in test [1] was 22.6 nM. In addition, the EC50 in test [2] came to 7.75 nM; in test [3] it was 2.86 nM.

Take `CC(C)n1nc(-c2cncc(C(F)(F)F)c2)cc1[C@H]1[C@@H]2C[C@H](N3CCO[C@H](C)C3)C[C@@H]21` (single isomer, unassigned) [42*]: the inhibition constant Ki in test [1] is 23.6 nM. The EC50 worked out at 43.9 nM in test [2] and 9 nM in test [3].

In the case of `CC(C)n1nc(-c2cncc(C(F)(F)F)c2)cc1[C@H]1[C@@H]2C[C@H](N3CCOC[C@@H]3C)C[C@@H]21` (single isomer, unassigned) [45*], in test [1], the Ki was 53 nM. For the same compound, the EC50 in test [2] is 48 nM; in test [3], 11 nM.

In the case of `CC(C)n1nc(-c2cncc(C(F)(F)F)c2)cc1[C@H]1[C@@H]2C[C@H](N3CCOC[C@H]3C)C[C@@H]21` (single isomer, unassigned) [46*], the inhibition constant (Ki) in test [1] is 34.8 nM. In addition, the EC50 in test [2] was found to be 0.907 nM; in test [3], 1.42 nM.

`CC(C)n1nc(-c2cncc(C(F)(F)F)c2)cc1[C@H]1CC[C@H](N2CCOCC2)C1` (single isomer, unassigned) [58*]: the Ki in test [1] is 26.2 nM. Further, the EC50 in test [2] worked out at 138 nM; in test [3], 25.1 nM.

With `CC(C)n1nc(-c2cncc(C(F)(F)F)c2)cc1[C@H]1CC[C@@H](N2CCOCC2)C1` (single isomer, unassigned) [60*], the inhibition constant (Ki) in test [1] is 19.2 nM. For the same compound, the EC50 in test [2] stood at 36.2 nM; in test [3] it was 5.52 nM.

With `CC(C)n1nc(-c2cncc(C(F)(F)F)c2)cc1[C@@H]1CC[C@H](N2CCOCC2)C1` (single isomer, unassigned) [61*], in test [1], the inhibition constant Ki was 69.1 nM. Besides, the concentration for a half-maximal effect (EC50) amounted to 102 nM in test [2] and 21.9 nM in test [3].

For `CC(C)n1nc(-c2cncc(C(F)(F)F)c2)cc1[C@@H]1CC[C@H](N2CCCOCC2)C1` (single isomer, unassigned) [62*], the inhibitory constant (Ki) in test [1] is 13.1 nM. Further, the concentration giving a half-maximal response (EC50) in test [2] amounted to 18.3 nM; in test [3] it was 1.73 nM.

In the case of `CC(C)n1nc(-c2cncc(C(F)(F)F)c2)cc1[C@H]1CC[C@H](N2CCCOCC2)C1` (single isomer, unassigned) [63*], in test [1], the Ki was 14.4 nM. In addition, the EC50 amounted to 21.8 nM in test [2] and 3.49 nM in test [3].

`CC(C)n1nc(-c2cncc(C(F)(F)F)c2)cc1[C@@H]1CC[C@@H](N2CCCOCC2)C1` (single isomer, unassigned) [65*]: the Ki in test [1] is 28.2 nM. The EC50 in test [2] was 103 nM; in test [3], 16.2 nM.

As for `CC(C)n1nc(-c2cccc(C(F)(F)F)c2)nc1[C@H]1[C@@H]2C[C@H](N3CCOC[C@H]3C)C[C@@H]21` (single isomer, unassigned) [70*], the Ki in test [1] was 8.76 nM. The EC50 worked out at 0.65 nM in test [2] and 6.43 nM in test [3].

As to `CC(C)n1nc(-c2cccc(C(F)(F)F)c2)nc1[C@H]1[C@@H]2C[C@@H](N3CCOC[C@H]3C)C[C@@H]21` (single isomer, unassigned) [71*], in test [1], the inhibition constant (Ki) is 29 nM. Also, the results for the concentration giving a half-maximal response (EC50) in test [2] and in test [3] were 749 nM and 205 nM, respectively.

For `CC(C)n1nc(-c2ccc(C(F)(F)F)nc2)cc1[C@@H]1CC[C@H](N2CCN(CCO)CC2)C1` (single isomer, unassigned) [87*], the Ki in test [1] was 26.2 nM. In addition, the 50% effective concentration (EC50) in test [2] was found to be 48.9 nM; in test [3] it was 16.4 nM.

On to `COCCN1CCN([C@H]2CC[C@@H](c3cc(-c4ccc(C(F)(F)F)nc4)nn3C(C)C)C2)CC1` (single isomer, unassigned) [91*], for which the Ki in test [1] is 12.8 nM. For the same compound, the results for the concentration giving a half-maximal response (EC50) in test [2] and in test [3] were 67.6 nM and 11.3 nM, respectively.

As for `COCCN1CCN([C@@H]2CC[C@H](c3cc(-c4ccc(C(F)(F)F)nc4)nn3C(C)C)C2)CC1` (single isomer, unassigned) [93*], the Ki in test [1] was 19.7 nM. For the same compound, the results for the EC50 in test [2] and in test [3] were 125 nM and 22.5 nM, respectively.

Take `CC[C@@H]1CN([C@@H]2CC[C@H](c3nc(-c4cnc(C(F)(F)F)nc4)nn3C(C)C)C2)CCO1` (single isomer, unassigned) [Compound 109*]: the Ki in test [1] was 164 nM. Besides, the EC50 is 285 nM in test [2] and 44 nM in test [3].

Consider `CC[C@H]1CN([C@@H]2CC[C@H](c3nc(-c4cnc(C(F)(F)F)nc4)nn3C(C)C)C2)CCO1` (single isomer, unassigned) [Compound 110*], for which the inhibition constant Ki in test [1] was 14.8 nM. The EC50 was found to be 13.9 nM in test [2] and 2.48 nM in test [3].

For the compound `CC(C)n1nc(-c2ccc(C(F)(F)F)c(F)c2)nc1[C@H]1CC[C@@H](N2CCOCC2)C1` (single isomer, unassigned) [Compound 111*], the Ki in test [1] is 45 nM. In addition, the concentration giving a half-maximal response (EC50) was 6.15 nM in test [2] and 1.64 nM in test [3].

Turning to `CC(C)n1nc(-c2ccc(C(F)(F)F)c(F)c2)nc1[C@H]1CC[C@H](N2CCOCC2)C1` (single isomer, unassigned) [Compound 112*], in test [1], the inhibition constant (Ki) was 90.8 nM. In addition, the EC50 in test [2] came to 196 nM; in test [3] it was 23.8 nM.

Turning to `CC(C)n1nc(-c2ccc(C(F)(F)F)c(F)c2)nc1[C@@H]1CC[C@H](N2CCOCC2)C1` (single isomer, unassigned) [Compound 113*], in test [1], the inhibitory constant (Ki) was 9.73 nM. In addition, the values for the EC50 in test [2] and in test [3] were 4.81 nM and 1.85 nM, respectively.

Take `CC(C)n1nc(-c2ccc(C(F)(F)F)c(F)c2)nc1[C@@H]1CC[C@@H](N2CCOCC2)C1` (single isomer, unassigned) [Compound 114*]: in test [1], the inhibition constant (Ki) is 14.7 nM. Besides, the EC50 in test [2] came to 25.7 nM; in test [3] it was 8 nM.

`CC(C)n1nc(-c2cncc(C(F)(F)F)c2)nc1[C@H]1CC[C@@H](N2CCOCC2)C1` (single isomer, unassigned) [Compound 118*]: the inhibitory constant (Ki) in test [1] was 32.2 nM. Besides, the half-maximal effective concentration (EC50) in test [2] is 93.2 nM; in test [3], 11.5 nM.
